Source: patent publication US20120202822A1, “COMBINATION” (priority 2009, published 2012)

Experiments:
Test in all cases: Fixed Ratio Drug Combination Assay, cell proliferation (CellTiter Glo)
Type in all cases: cell-based, human
[1] = system: LS1034; conditions: for Ymin/T0: 72 hours; for IC50: Homo sapiens, LS-1034, 72 hours, read-out: gIC50
Method: (§1) Combination drug tests with Compounds A and B were conducted using a panel of cell lines from human colon cancers (n=25) (Table 1). Cell lines were purchased commercially [from ATCC (Manassas, Va., USA) or DSMZ (Braunschweig, Germany)] and grown in RPMI-1640 supplemented with 2 mM glutamine, 1 mM sodium pyruvate and 10% fetal bovine serum and maintained at 37° C. and 5% CO2 in a humid incubator.
(§2) The dilution design of the Fixed Ratio Drug Combination Assay can be seen in FIG. 1. First, the test compounds were prepared as 10 mM stocks in 100% dimethyl sulfoxide (DMSO). Further dilutions of the compounds were made with DMSO. The first test compound (designated as Compound A) is diluted horizontally in a 96 well microtiter plate in rows B-E using a 3-fold dilution series for 10 dilution points. A second test compound (designated as Compound B) is diluted horizontally in a separate 96 well microtiter plate in rows D-G using a 3-fold dilution series for 10 dilution points. The two compounds are combined using equal volumes from each drug plate into cell culture media. […] Compound A is individually titrated in rows B and C, while only Compound B is dosed in rows F and G of the plate. An additional 1:10 dilution of the drugs is performed in cell culture media prior to addition to the cells. Drug addition to the cells results in a further 1:2 dilution of drugs. The total dilution of the drug plate to the cells is […]. The final dosing concentration range for Compound B was 0.1-1000.0 nM and was 0.5-10000.0 nM for Compound A. The positive control consists of culture media with DMSO at 0.1% and cells and no drug. The negative control consists of culture media with DMSO at 0.1%. solution.
(§3) Assays were performed in 96 well microtiter plates with appropriate seeding densities estimated from previous studies of each cell line. Following dosing, the cell lines are incubated at 37° C., 5% CO2 in humid air for 72 hours. Cell proliferation was measured using the CellTiter Glo (Promega Corporation, Madison, Wis., USA) reagent according to the manufacturer's protocol. The plates are treated with CellTiter Glo solution and are analyzed for RLU (relative light units) using a Molecular Devices SpectraMax M5 (Sunnyvale, Calif., USA) plate reader.
(§4) Results are expressed as a percentage of the number of cells present at the time of compound addition value (T0) and plotted against compound(s) concentration. The percent intensity values were used in model 205 of the IDBS XLfit plug-in for Microsoft Excel to calculate gIC50 values using a 4 parameter logistical fit. Background correction is made by subtraction of values from wells containing no cells. The midpoint of the growth window (the gIC50) falls half way between the number of cells at the time of compound addition and the growth of control cells treated with DMSO at 72 hrs. The number of cells at time zero is divided from the intensity value at the bottom of the response curve (Ymin) to generate a measure for cell death (Ymin/T0). A value below 1 for Ymin/T0 indicates stronger potency with the treatment when compared to higher values. For duplicate assays, all response metrics are averaged for presentation.
(§5) Three independent metrics were used to analyze the combinatorial effects on growth inhibition of Compound B and Compound A. • 1. Excess over Highest Single Agent (EOHSA)—One standard criterion for measuring drug combinatorial effects is analyzing the effects on cell growth inhibition in absolute terms. In this case, the combination of drugs is compared to the more responsive of the two individual treatments (single agent). For each combination experiment, the percent effect relative to the highest single agent for each dose along the curve is generated. This measure of “Excess of Highest Single Agent (EOHSA)” is one of the criteria used for evaluating synergy of drug combinations. […]

[2] = system: HCC2998; conditions: for Ymin/T0: 72 hours; for IC50: Homo sapiens, HCC 2998, 72 hours, read-out: gIC50
Method: as §1, §2, §3, §4, §5

[3] = system: DLD1; conditions: for Ymin/T0: 72 hours; for IC50: Homo sapiens, DLD-1, 72 hours, read-out: gIC50
Method: as §1, §2, §3, §4, §5

CC(C)(C)c1nc(-c2cccc(NS(=O)(=O)c3c(F)cccc3F)c2F)c(-c2ccnc(N)n2)s1 [Compound A, N-{3-[5-(2-amino-4-pyrimidinyl)-2-(1,1-dimethylethyl)-1,3-thiazol-4-yl]-2-fluorophenyl}-2,6-difluorobenzenesulfonamide]
Ymin/T0 [1]: 1.9 | IC50 [1]: > 10000 nM | Ymin/T0 [2]: 2.8 | IC50 [2]: 2400 nM | Ymin/T0 [3]: 6.7 | IC50 [3]: 199 nM

COc1ncc(-c2ccc3nccc(-c4ccnnc4)c3c2)cc1NS(=O)(=O)c1ccc(F)cc1F [Compound B, 2,4-difluoro-N-{2-(methyloxy)-5-[4-(4-pyridazinyl)-6-quinolinyl]-3-pyridinyl}benzenesulfonamide]
Ymin/T0 [1]: 0.5 | IC50 [1]: 1.4 nM | Ymin/T0 [2]: 0.9 | IC50 [2]: 4.7 nM | Ymin/T0 [3]: 1.8 | IC50 [3]: 20.5 nM
